From PubChem BioAssay (NCI)
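GI50 = concentration required for 50% inhibition of growth. At the TGI there is no net growth.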

Legend:
Experiment in all cases: inhibition of tumour cell growth, NCI panel, 384-well format; in the data active = GI50 below about 0.43 µM; inactive = the rest
[1] = tested on: MDA-MB-468 breast
[2] = tested on: M14 melanoma
[3] = tested on: SK-OV-3 ovarian
[4] = tested on: HCT-15 colon
[5] = tested on: SN12C renal
[6] = tested on: MDA-MB-435 melanoma
[7] = tested on: NCI-H23 lung
[8] = tested on: MOLT-4 leukemia
[9] = tested on: SK-MEL-5 melanoma
[10] = tested on: COLO 205 colon
[11] = tested on: A498 renal
[12] = tested on: NCI/ADR-RES ovarian
[13] = tested on: HS 578T breast
[14] = tested on: SNB-19 CNS
[15] = tested on: UACC-62 melanoma
[16] = tested on: NCI-H460 NSCLC
[17] = tested on: IGROV1 ovarian
[18] = tested on: 786-0 renal
[19] = tested on: TK-10 renal
[20] = tested on: NCI-H522 lung
[21] = tested on: OVCAR-4 ovarian
[22] = tested on: SF-539 CNS
[23] = tested on: MCF7 breast
[24] = tested on: PC-3 prostate
[25] = tested on: CCRF-CEM leukemia
[26] = tested on: T-47D breast
[27] = tested on: A549 NSCLC
[28] = tested on: ACHN renal
[29] = tested on: HCC-2998 colon
[30] = tested on: NCI-H322M lung
[31] = tested on: HCT-116 colon
[32] = tested on: NCI-H226 lung
[33] = tested on: UACC-257 melanoma
[34] = tested on: HL-60(TB) leukemia
[35] = tested on: DU-145 prostate
[36] = tested on: SNB-75 CNS
[37] = tested on: OVCAR-8 ovarian
[38] = tested on: HOP-92 NSCLC
[39] = tested on: SW-620 colon
[40] = tested on: U251 glioblastoma
[41] = tested on: K-562 leukemia
[42] = tested on: RXF 393 renal
[43] = tested on: RPMI-8226 leukemia
[44] = tested on: LOX IMVI melanoma
[45] = tested on: HOP-62 NSCLC
[46] = tested on: KM12 colon
[47] = tested on: MDA-MB-231 breast
[48] = tested on: SF-268 CNS
[49] = tested on: SF-295 CNS
[50] = tested on: MALME-3M melanoma
[51] = tested on: EKVX NSCLC
[52] = tested on: BT-549 breast
[53] = tested on: HT29 colon
[54] = tested on: CAKI-1 renal
[55] = tested on: SK-MEL-28 melanoma
[56] = tested on: OVCAR-3 ovarian
[57] = tested on: UO-31 renal

CC1(C)OCCn2c1nc1c(N3CCOCC3)nc(-c3cnc(N)nc3)nc12
0.749 µM: TGI [50]
1.35 µM: TGI [13]
inactive: GI50 [2] 0.494 µM | GI50 [4] 0.432 µM | GI50 [6] 1.23 µM | GI50 [7] 0.446 µM | GI50 [9] 0.519 µM | GI50 [12] 1.77 µM | GI50 [14] 5.61 µM | GI50 [15] 0.556 µM | GI50 [18] 1.28 µM | GI50 [21] 1.04 µM | GI50 [22] 1.04 µM | GI50 [25] 0.491 µM | GI50 [27] 0.477 µM | GI50 [28] 0.467 µM | GI50 [29] 0.885 µM | GI50 [30] 0.458 µM | GI50 [31] 0.545 µM | GI50 [33] 1.83 µM | GI50 [35] 0.527 µM | GI50 [37] 0.742 µM | GI50 [39] 1.6 µM | GI50 [40] 2.25 µM | GI50 [41] 1.95 µM | GI50 [42] 0.758 µM | GI50 [44] 0.556 µM | GI50 [45] 0.771 µM | GI50 [46] 0.834 µM | GI50 [47] 0.584 µM | GI50 [48] 1.07 µM | GI50 [51] 0.519 µM | GI50 [52] 0.799 µM | GI50 [56] 0.513 µM
4.42 µM: TGI [42]
5.49 µM: TGI [5]
9.15 µM: TGI [35]
2.56 µM: TGI [9]
1.91 µM: TGI [34]
9.93 µM: TGI [18]
3.68 µM: TGI [19]
0.638 µM: TGI [26]
0.659 µM: TGI [17]
4.1 µM: TGI [51]
2.98 µM: TGI [15]
6.87 µM: TGI [28]
5.79 µM: TGI [21]
> 100 µM: TGI [2] | TGI [4] | TGI [6] | TGI [7] | TGI [12] | TGI [14] | TGI [16] | TGI [20] | TGI [22] | TGI [23] | TGI [29] | TGI [31] | TGI [33] | TGI [37] | TGI [39] | TGI [40] | TGI [41] | TGI [45] | TGI [46] | TGI [47] | TGI [48] | TGI [53] | TGI [57]
7.28 µM: TGI [56]
5.42 µM: TGI [55]
6.92 µM: TGI [24]
3.44 µM: TGI [44]
active: GI50 [1] 0.399 µM | GI50 [3] 0.199 µM | GI50 [5] 0.389 µM | GI50 [8] 0.218 µM | GI50 [10] 0.378 µM | GI50 [11] 0.314 µM | GI50 [13] 0.275 µM | GI50 [16] 0.199 µM | GI50 [17] 0.158 µM | GI50 [19] 0.412 µM | GI50 [20] 0.368 µM | GI50 [23] 0.0964 µM | GI50 [24] 0.306 µM | GI50 [26] 0.128 µM | GI50 [32] 0.348 µM | GI50 [34] 0.153 µM | GI50 [36] 0.232 µM | GI50 [38] 0.385 µM | GI50 [43] 0.193 µM | GI50 [49] 0.316 µM | GI50 [50] 0.161 µM | GI50 [53] 0.412 µM | GI50 [54] 0.279 µM | GI50 [55] 0.418 µM | GI50 [57] 0.416 µM
2.27 µM: TGI [36]
0.667 µM: TGI [43]
6.09 µM: TGI [27]
2.9 µM: TGI [32]
2.2 µM: TGI [11]
7.05 µM: TGI [25]
9.22 µM: TGI [10]
2.74 µM: TGI [54]
2.89 µM: TGI [38]
5.59 µM: TGI [52]
1.2 µM: TGI [3] | TGI [8]
2.02 µM: TGI [49]
1.78 µM: TGI [1]
8.7 µM: TGI [30]
